The values below come from publication PMC9533879 (European Journal of Medicinal Chemistry, 2021).

For series [1], the system named is Vaccinia virus (strain Copenhagen). As to conditions: for IC50: read-out: IC50 Vaccinia.

Where only a bound is given, the exact number is not on record here.

As to “3,5-Dimethyl-N^1-(4-(trifluoromethyl)benzoyl)adamantane-1-carbohydrazide [Compound 17]”, in series [1], the “SI (CC50/IC50) Vaccinia” value is listed as 30.9/>8.2 and the IC50 (commonly the concentration needed to halve the response being measured) is 30.9 µM. The CC50 (as a rule, the concentration that lowers cell viability or growth by half) in the series on Vero cell culture is over 254 µM. Taken in the same sequence, the figures for “3-Ethyl-N^1-(4-(trifluoromethyl)benzoyl)adamantane-1-carbohydrazide [Compound 18]” were 12.53/3.75, 12.5 µM and 47 µM.

For the compound `O=C(NC12CC3CC(CC(C3)C1)C2)c1ccc(C(F)(F)F)cc1` [Compound 5, N-(Adamantan-1-yl)-4-(trifluoromethyl)benzamide], in series [1], the “times less active than the reference compound tecovirimat” value came to 50. With `CCC12CC3CC(C1)CC(NC(=O)c1ccc(C(F)(F)F)cc1)(C3)C2` [Compound 6, N-(3-Ethylаdamantan-1-yl)-4-(trifluoromethyl)benzamide], the “SI (CC50/IC50) Vaccinia” value in series [1] is reported as 4.1/>68. Same read-out and setting: the same measure for `CN(C(=O)c1ccc(C(F)(F)F)cc1)C12CC3CC(CC(C3)C1)C2` [Compound 7, N-(Adamantan-1-yl)-N-methyl-4-(trifluoromethyl)benzamide]: 4.85/>61. For `O=C(NCC12CC3CC(CC(C3)C1)C2)c1ccc(Br)cc1` [Compound 9, N-((Adamantan-1-yl)methyl)-4-bromobenzamide], in series [1], the “SI (CC50/IC50) Vaccinia” value is on record as 8.3/28. Still for that read-out and setting: in the case of `O=C(NC1C2CC3CC(C2)CC1C3)c1ccc(Br)cc1` (centres unmarked) [Compound 11, N-(Adamantan-2-yl)-4-bromobenzamide] it was 3.06/>98. Turning to `O=C(NNC(=O)C12CC3CC(CC(C3)C1)C2)c1ccc(C(F)(F)F)cc1` [Compound 16, N^1-(4-(Trifluoromethyl)benzoyl)adamantane-1-carbohydrazide], the “SI (CC50/IC50) Vaccinia” value in series [1] is given as 1.07/>255. In the series with Vero cell culture, this compound returned a CC50 of over 273 µM. As to `O=C(NNC(=O)c1ccc(C(F)(F)F)cc1)NC12CC3CC(CC(C3)C1)C2` [Compound 20, N^1-(Adamantan-1-yl)-2-(4-(trifluoromethyl)benzoyl)hydrazine-1-carboxamide], the “SI (CC50/IC50) Vaccinia” value in series [1] is recorded as 36.26/2.6.

Consider `C/C(=N\NC(=O)c1ccc(C(F)(F)F)cc1)C12CC3CC(CC(C3)C1)C2` [Compound 31, N^1-(1-(Adamantan-1-yl)ethylidene)-4-(trifluoromethyl)benzohydrazide], for which the “SI (CC50/IC50) Vaccinia” value in series [1] was 10.55/>26. As for `CC12CC3CC(C1)CC(NC(=O)c1ccc(C(F)(F)F)cc1)(C3)C2` [Compound 37], in series [1], the “SI (CC50/IC50) Vaccinia” value was 8.98/>33. Turning to “(rac)-N^1-(1-(Adamantan-1-yl)ethyl)-4-(trifluoromethyl)benzohydrazide [Compound 32]”, in series [1], the “SI (CC50/IC50) Vaccinia” value is 0.515/27 and the IC50 is 0.515 µM. For the same compound, half-maximal cytotoxicity in the series with Vero cell culture (CC50) was put at 14 µM.

Take “N^1-(3-Ethyladamantan-1-yl)-4-(trifluoromethyl)benzohydrazide [Compound 36]”: in series [1], the “SI (CC50/IC50) Vaccinia” value is given as 1.66/1.5 and the IC50 came out at 1.66 µM. The compound further registered a CC50 in the series with Vero cell culture of 2.5 µM. The matching figures for “N^1-(5-Chloroadamantan-2-yl)-4-(trifluoromethyl)benzohydrazide [Compound 28]”: 3.52/61, 3.52 µM and about 215 µM.

The compound “N^1-(Adamantan-1-yl)-4-(trifluoromethyl)benzohydrazide [Compound 35]” yielded a CC50 in the series with Vero cell culture of 2.8 µM. Consider “N^1-(Adamantan-2-yl)-4-(trifluoromethyl)benzohydrazide [Compound 27]”, for which, in series [1], the “SI (CC50/IC50) Vaccinia” value was 2.8/>103 and the IC50 was determined as 2.8 µM. In the series on Vero cell culture, this compound came in with a CC50 of over 296 µM.
